The source of these data is US20210290606A1, “METHOD TO PREVENT AND TREAT OSTEOARTHRITIS BY CALCIUM CHANNEL BLOCKERS, ANGIOTENSIN CONVERTING ENZYME INHIBITORS, AND ANGIOTENSIN RECEPTOR BLOCKERS” (priority 2018, published 2021).

For assay [1], the system named is osteoarthritis. The following applies: cited from earlier work; for clinical difference between the high potency narcotics and tramadol: human, in vivo.
Assay [2] has as its system osteoarthritis syndrome in both knees. Description: Composition applied to the skin in the region of one knee, other knee left untreated. It counts as in vivo, human. The following applies: patient, topical application to skin in the region of one knee. The source says:
A patient is diagnosed with osteoarthritis syndrome in both knees.
A patient is diagnosed with osteoarthritis syndrome in both knees. A composition comprising the ACE inhibitor enalapril is directly applied to the skin in the region of one knee while the other knee is left untreated.
A patient is diagnosed with osteoarthritis syndrome in both knees. A composition comprising the angiotensin receptor blocker losartan is directly applied to the skin in the region of one knee while the other knee is left untreated.

Assay [3] has the same test system. The assay is described as follows: Composition given by intra-articular injection in one knee, other knee left untreated. The following applies: patient. In kind it is in vivo, human. The procedure:
A patient is diagnosed with osteoarthritis syndrome in both knees. […] A patient is diagnosed with osteoarthritis syndrome in both knees. A composition comprising the ACE inhibitor enalapril is administered by intra-articular injection in one knee while the other knee is left untreated. […] A patient is diagnosed with osteoarthritis syndrome in both knees. A composition comprising the angiotensin receptor blocker losartan is administered by intra-articular injection in one knee while the other knee is left untreated.

The subject of assay [4] is osteoarthritis. As to conditions: 6 trials, 1501 participants, cited from earlier work.

Where two headings read alike, the source gives them in different places.

As for `CC(=O)Nc1ccc(O)cc1` [Tylenol], the clinical effect result in assay [1] (meta-analysis of 74 randomized clinical trials, 58556 patients) is “did not have a clinically relevant effect”. Take `COc1cccc(C2(O)CCCCC2CN(C)C)c1` (stereo not shown) [tramadol]: the “clinical difference between the high potency narcotics and tramadol” value in assay [1] was “no clinically observable difference”. `CCCCc1nc(Cl)c(CO)n1Cc1ccc(-c2ccccc2-c2nn[nH]n2)cc1` [losartan]: the “symptoms of osteoarthritis syndrome, treated knee versus untreated knee” value in assay [2] and in assay [3] was “reduced symptoms of osteoarthritis syndrome” in each case. For the compound chondroitin sulfate, in assay [1] (meta-analysis of 20 randomized clinical studies, 3846 patients, called negligible), the “effect on pain and function” value was 0.003%. Take `CN1CC[C@]23c4c5ccc(O)c4O[C@H]2[C@@H](O)C=C[C@H]3[C@H]1C5` [morphine]: the “clinical difference between the high potency narcotics and tramadol” value in assay [1] is given as “no clinically observable difference”. With `COc1ccc2c3c1O[C@H]1C(=O)CC[C@@]4(O)[C@@H](C2)N(C)CC[C@]314` [oxycodone], the “clinical difference between the high potency narcotics and tramadol” value in assay [1] is “no clinically observable difference”.

Consider `CCOC(=O)[C@H](CCc1ccccc1)N[C@@H](C)C(=O)N1CCC[C@H]1C(=O)O` [enalapril], for which the “symptoms of osteoarthritis syndrome, treated knee versus untreated knee” value in assay [2] and in assay [3] was “reduced symptoms of osteoarthritis syndrome” throughout. On to `N[C@H]1C(O)O[C@H](CO)[C@@H](O)[C@@H]1O.O=S(=O)(O)O` (stereo partly shown) [glucosamine sulfate], for which, in assay [1] (industry-sponsored study of 604 patients), the pain and function result is “statistical significant reduction in pain and increase in function”. The effect versus placebo result in assay [1] (meta-analysis of 25 randomized placebo controlled clinical trials, 3458 patients) is recorded as “failed to find any significant effects”. Further, the “preventive effect on osteoarthritis” value is listed as “small statistical effect” in assay [4] (after 3 years, benefit clinically irrelevant) and “no preventive effect” in assay [4] (after one year).
